ChEMBL document CHEMBL1208691, “Synthesis of polyhalo acridones as pH-sensitive fluorescence probes” (Bioorg Med Chem Lett, 2010)
≈ marks a conversion by molar mass, not a printed value.

Columns and labels:
Assay type in all cases: functional, cell-based
[1] = test system: HL-60; assay: Cytotoxicity against human HL60 cells by MTT assay
[2] = test system: HepG2; assay: Cytotoxicity against human HepG2 cells by MTT assay
[3] = test system: SK-OV-3; assay: Cytotoxicity against human SKOV3 cells by MTT assay
[4] = test system: K562; assay: Cytotoxicity against human K562 cells by MTT assay
[5] = test system: A-431; assay: Cytotoxicity against human A431 cells by MTT assay

SMILES	IC50 [1]	IC50 [2]	IC50 [3]	IC50 [4]	IC50 [5]
NC(=O)c1c(Cl)c(Cl)c2[nH]c3ccccc3c(=O)c2c1Cl	5.7 µg/mL (≈ 16.7 µM)	1.9 µg/mL (≈ 5.56 µM)	28 µg/mL (≈ 82 µM)	7.7 µg/mL (≈ 22.5 µM)	1.2 µg/mL (≈ 3.51 µM)
NC(=O)c1c(F)c(Cl)c2[nH]c3ccccc3c(=O)c2c1F	0.2 µg/mL (≈ 0.648 µM)	0.2 µg/mL (≈ 0.648 µM)	4 µg/mL (≈ 13 µM)	0.2 µg/mL (≈ 0.648 µM)	0.08 µg/mL (≈ 0.259 µM)
NC(=O)c1c(F)c(F)c2[nH]c3ccccc3c(=O)c2c1F	2 µg/mL (≈ 6.84 µM)	6.5 µg/mL (≈ 22.2 µM)	4.5 µg/mL (≈ 15.4 µM)	4.5 µg/mL (≈ 15.4 µM)	0.05 µg/mL (≈ 0.171 µM)
NC(=O)c1c(F)c(Cl)c2[nH]c3ccc(Cl)cc3c(=O)c2c1F	16.6 µg/mL (≈ 48.4 µM)	3.4 µg/mL (≈ 9.91 µM)	5.3 µg/mL (≈ 15.4 µM)	3 µg/mL (≈ 8.74 µM)	0.3 µg/mL (≈ 0.874 µM)
NC(=O)c1c(F)c(F)c2[nH]c3ccc(Cl)cc3c(=O)c2c1F	1.3 µg/mL (≈ 3.98 µM)	4.3 µg/mL (≈ 13.2 µM)	3.9 µg/mL (≈ 11.9 µM)	2.7 µg/mL (≈ 8.27 µM)	0.3 µg/mL (≈ 0.918 µM)
